PubChem BioAssay AID1259407 (Chemical Carcinogenesis Research Information System (CCRIS), 2018)
Activity calls are given as the source filed them. How the calls were made is not given here.

System: CCRIS mutagenicity, Ames/micronucleus/aberration tests
Test: CCRIS mutagenicity studies
[1] = Test System: AMES SALMONELLA TYPHIMURIUM, Strain/Indicator: TA98, Metabolic Activation: NONE, Method: PREINCUBATION
[2] = Test System: AMES SALMONELLA TYPHIMURIUM, Strain/Indicator: TA100, Metabolic Activation: NONE, Method: PREINCUBATION
[3] = Test System: AMES SALMONELLA TYPHIMURIUM, Strain/Indicator: TA98, Metabolic Activation: NONE, Method: STANDARD PLATE
[4] = Test System: AMES SALMONELLA TYPHIMURIUM, Strain/Indicator: TA98, Metabolic Activation: S-9, Method: STANDARD PLATE
[5] = Test System: AMES SALMONELLA TYPHIMURIUM, Strain/Indicator: TA100, Metabolic Activation: NONE, Method: STANDARD PLATE
[6] = Test System: AMES SALMONELLA TYPHIMURIUM, Strain/Indicator: TA100, Metabolic Activation: S-9, Method: STANDARD PLATE

SMILES: CCCCCCC(C)COC(=O)c1ccccc1C(=O)OCC(C)CCCCCC (centres undefined)
- mutagenic call (Test System: AMES SALMONELLA TYPHIMURIUM, Strain/Indicator: TA98, Metabolic Activation: HAMSTER, LIVER, S-9, AROCLOR 1254 (10%), Method: PREINCUBATION): inactive; negative
- mutagenic call [1]: inactive; negative
- mutagenic call (Test System: AMES SALMONELLA TYPHIMURIUM, Strain/Indicator: TA98, Metabolic Activation: RAT LIVER S-9, AROCLOR, Method: PREINCUBATION): inactive; negative
- mutagenic call (Test System: AMES SALMONELLA TYPHIMURIUM, Strain/Indicator: TA98, Metabolic Activation: RAT, LIVER, S-9, AROCLOR 1254 (10%), Method: PREINCUBATION): inactive; negative
- mutagenic call (Test System: AMES SALMONELLA TYPHIMURIUM, Strain/Indicator: TA100, Metabolic Activation: HAMSTER, LIVER, S-9, AROCLOR 1254 (10%), Method: PREINCUBATION): inactive; negative
- mutagenic call [2]: inactive; negative
- mutagenic call (Test System: AMES SALMONELLA TYPHIMURIUM, Strain/Indicator: TA100, Metabolic Activation: RAT LIVER S-9, AROCLOR, Method: PREINCUBATION): inactive; negative
- mutagenic call (Test System: AMES SALMONELLA TYPHIMURIUM, Strain/Indicator: TA100, Metabolic Activation: RAT, LIVER, S-9, AROCLOR 1254 (10%), Method: PREINCUBATION): inactive; negative
- mutagenic call (Test System: AMES SALMONELLA TYPHIMURIUM, Strain/Indicator: TA1535, Metabolic Activation: HAMSTER, LIVER, S-9, AROCLOR 1254 (10%), Method: PREINCUBATION): inactive; negative
- mutagenic call (Test System: AMES SALMONELLA TYPHIMURIUM, Strain/Indicator: TA1535, Metabolic Activation: NONE, Method: PREINCUBATION): inactive; negative
- mutagenic call (Test System: AMES SALMONELLA TYPHIMURIUM, Strain/Indicator: TA1535, Metabolic Activation: RAT LIVER S-9, AROCLOR, Method: PREINCUBATION): inactive; negative
- mutagenic call (Test System: AMES SALMONELLA TYPHIMURIUM, Strain/Indicator: TA1535, Metabolic Activation: RAT, LIVER, S-9, AROCLOR 1254 (10%), Method: PREINCUBATION): inactive; negative
- mutagenic call (Test System: AMES SALMONELLA TYPHIMURIUM, Strain/Indicator: TA1537, Metabolic Activation: HAMSTER, LIVER, S-9, AROCLOR 1254 (10%), Method: PREINCUBATION): inactive; negative
- mutagenic call (Test System: AMES SALMONELLA TYPHIMURIUM, Strain/Indicator: TA1537, Metabolic Activation: NONE, Method: PREINCUBATION): inactive; negative
- mutagenic call (Test System: AMES SALMONELLA TYPHIMURIUM, Strain/Indicator: TA1537, Metabolic Activation: RAT LIVER S-9, AROCLOR, Method: PREINCUBATION): inactive; negative
- mutagenic call (Test System: AMES SALMONELLA TYPHIMURIUM, Strain/Indicator: TA1537, Metabolic Activation: RAT, LIVER, S-9, AROCLOR 1254 (10%), Method: PREINCUBATION): inactive; negative
- mutagenic call (Test System: MOUSE LYMPHOMA, Strain/Indicator: L5178Y (TK+/TK-), Metabolic Activation: NONE, Method: SUSPENSION/PLATE): inactive; negative
- mutagenic call (Test System: MOUSE LYMPHOMA, Strain/Indicator: L5178Y (TK+/TK-), Metabolic Activation: RAT LIVER S-9, Method: SUSPENSION/PLATE): inactive; negative

SMILES: CCC(C(C)O)[N+](=O)[O-] (centres undefined)
- mutagenic call [1]: inactive; negative
- mutagenic call (Test System: AMES SALMONELLA TYPHIMURIUM, Strain/Indicator: TA98, Metabolic Activation: RAT, LIVER, S-9, AROCLOR, Method: PREINCUBATION): inactive; negative
- mutagenic call [2]: inactive; negative
- mutagenic call (Test System: AMES SALMONELLA TYPHIMURIUM, Strain/Indicator: TA100, Metabolic Activation: RAT, LIVER, S-9, AROCLOR, Method: PREINCUBATION): inactive; negative
- mutagenic call (Test System: AMES SALMONELLA TYPHIMURIUM, Strain/Indicator: TA102, Metabolic Activation: NONE, Method: PREINCUBATION): inactive; negative
- mutagenic call (Test System: AMES SALMONELLA TYPHIMURIUM, Strain/Indicator: TA102, Metabolic Activation: RAT, LIVER, S-9, AROCLOR, Method: PREINCUBATION): inactive; negative

SMILES: Nc1ccc(/C=C\c2ccc([N+](=O)[O-])cc2)cc1
- mutagenic call (Test System: AMES SALMONELLA TYPHIMURIUM, Strain/Indicator: TA98(1,8-DNP6), Metabolic Activation: NONE, Method: STANDARD PLATE): inactive; negative
- mutagenic call (Test System: AMES SALMONELLA TYPHIMURIUM, Strain/Indicator: TA98(1,8-DNP6), Metabolic Activation: S-9, Method: STANDARD PLATE): active; positive
- mutagenic call [3]: active; positive
- mutagenic call (Test System: AMES SALMONELLA TYPHIMURIUM, Strain/Indicator: TA98, Metabolic Activation: RAT, LIVER, S-9, AROCLOR 1254, Method: STANDARD PLATE): active; positive
- mutagenic call [4]: active; positive
- mutagenic call [5]: inactive; negative
- mutagenic call (Test System: AMES SALMONELLA TYPHIMURIUM, Strain/Indicator: TA100, Metabolic Activation: RAT, LIVER, S-9, AROCLOR 1254, Method: STANDARD PLATE): active; positive
- mutagenic call [6]: active; positive

SMILES: Cc1ccc(N=Nc2c(O)c(C(=O)O)cc3ccccc23)c(S(=O)(=O)O)c1
- mutagenic call [3]: inactive; negative
- mutagenic call (Test System: AMES SALMONELLA TYPHIMURIUM, Strain/Indicator: TA98, Metabolic Activation: RAT LIVER S-9, AROCLOR 1254, Method: STANDARD PLATE): inactive; negative
- mutagenic call [5]: inactive; negative
- mutagenic call (Test System: AMES SALMONELLA TYPHIMURIUM, Strain/Indicator: TA100, Metabolic Activation: RAT LIVER S-9, AROCLOR 1254, Method: STANDARD PLATE): inactive; negative

SMILES: Nc1ccc2c(n1)[nH]c1ccccc12
- mutagenic call (Test System: AMES SALMONELLA TYPHIMURIUM, Strain/Indicator: TA98, Metabolic Activation: MONKEY, LIVER, S-9, Method: PREINCUBATION): active; positive
- mutagenic call (Test System: AMES SALMONELLA TYPHIMURIUM, Strain/Indicator: TA98, Metabolic Activation: RAT, LIVER, S-9, AROCLOR 1254, Method: PREINCUBATION): active; positive
- mutagenic call (Test System: AMES SALMONELLA TYPHIMURIUM, Strain/Indicator: TA100, Metabolic Activation: RAT, LIVER, S-9, AROCLOR 1254, Method: PREINCUBATION): active; positive
- mutagenic call (Test System: AMES SALMONELLA TYPHIMURIUM, Strain/Indicator: YG1019, Metabolic Activation: RAT LIVER S-9, AROCLOR, Method: PREINCUBATION): active; positive

SMILES: OCc1ccc(C(F)(F)F)cc1
- mutagenic call [5]: inactive; negative

SMILES: O=[N+]([O-])c1ccc(/C=C/c2ccc([N+](=O)[O-])cc2)cc1
- mutagenic call (Test System: AMES SALMONELLA TYPHIMURIUM, Strain/Indicator: TA98 (NR), Metabolic Activation: NONE, Method: STANDARD PLATE): active; positive
- mutagenic call (Test System: AMES SALMONELLA TYPHIMURIUM, Strain/Indicator: TA98 (NR), Metabolic Activation: S-9, Method: STANDARD PLATE): inactive; negative
- mutagenic call [3]: active; positive
- mutagenic call [4]: active; positive
- mutagenic call (Test System: AMES SALMONELLA TYPHIMURIUM, Strain/Indicator: TA100 (NR), Metabolic Activation: NONE, Method: STANDARD PLATE): inactive; negative
- mutagenic call (Test System: AMES SALMONELLA TYPHIMURIUM, Strain/Indicator: TA100 (NR), Metabolic Activation: S-9, Method: STANDARD PLATE): inactive; negative
- mutagenic call [5]: active; positive
- mutagenic call [6]: active; positive
